Test results as given in patent US5045537A, “Hydrophilic renin inhibitors, their preparation and use” (Sandoz Ltd., priority 1987, dated 1991).

Columns and labels:
[1] = system: FeLV; details: 30 mg treatment over 14 days; cited from earlier work
[2] = biological target: T1, human plasma renin (Homo sapiens, UniProt P00797); experiment: Antibody-trapping method of Poulsen and Jorgensen, human plasma renin activity; type: biochemical; details: antibody trapping test
T1 construct: human plasma renin activity; from tissue; host or cells: human plasma
T1 sequence (P00797 67-406): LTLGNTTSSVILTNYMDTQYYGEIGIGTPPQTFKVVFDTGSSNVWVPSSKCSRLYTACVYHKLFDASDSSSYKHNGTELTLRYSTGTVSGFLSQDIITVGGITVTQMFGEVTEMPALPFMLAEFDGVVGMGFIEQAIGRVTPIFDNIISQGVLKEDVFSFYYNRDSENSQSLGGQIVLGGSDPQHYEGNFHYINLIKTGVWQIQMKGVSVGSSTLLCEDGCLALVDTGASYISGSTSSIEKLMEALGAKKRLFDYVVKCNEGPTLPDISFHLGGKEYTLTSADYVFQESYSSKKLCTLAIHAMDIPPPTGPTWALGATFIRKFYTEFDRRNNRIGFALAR
From the text: In the antibody-trapping method of K. Poulsen and J. Jorgensen (J. Clin. Endocrin. Metab. 39, [1974] 816-825), they inhibit human plasma renin activity at a concentration of 10^-5 M to 10^-11 M.

| IC50 [2] | highest inhibiting concentration [2] | lowest inhibiting concentration [2] | Compound | cure [1] | reduction of FeLV-titres by a factor [1] |
| --- | --- | --- | --- | --- | --- |
|  |  |  | Cc1cn([C@H]2C[C@H](N=[N+]=[N-])[C@@H](CO)O2)c(=O)[nH]c1=O [3'-azido-3'-deoxy-thymidine] | no cure was achieved | 10 |
| 1.5 nM | 15 nM/l | 0,15 nM/l | CCCC[C@H](NC(=O)[C@H](Cc1cccs1)NC(=O)COCCOCCOCCOC)C(=O)N[C@@H](CC1CCCCC1)[C@@H](O)CC(=O)N[C@@H](CC(C)C)C(=O)NCc1ccccn1 [Example 46, 3EG-Thala-Nle-Chatin-Leu-α-Pic] |  |  |
